Measurements: publication PMC12000319, “Proton conductance by human uncoupling protein 1 is inhibited by purine and pyrimidine nucleotides” (The EMBO Journal, 2025)
Values joined by “and” are separate entries in the source; they are usually repeats but may differ in a detail not shown here. Identical values can stand only once.

Target: T1, UCP1 (Homo sapiens, UniProt P25874)
T1 construct: His8 (N, cleaved yes); Factor Xa protease cleavage site (N, cleaved yes); made in house; host or cells: Saccharomyces cerevisiae strain W303.1B
T1 sequence (P25874 1-307): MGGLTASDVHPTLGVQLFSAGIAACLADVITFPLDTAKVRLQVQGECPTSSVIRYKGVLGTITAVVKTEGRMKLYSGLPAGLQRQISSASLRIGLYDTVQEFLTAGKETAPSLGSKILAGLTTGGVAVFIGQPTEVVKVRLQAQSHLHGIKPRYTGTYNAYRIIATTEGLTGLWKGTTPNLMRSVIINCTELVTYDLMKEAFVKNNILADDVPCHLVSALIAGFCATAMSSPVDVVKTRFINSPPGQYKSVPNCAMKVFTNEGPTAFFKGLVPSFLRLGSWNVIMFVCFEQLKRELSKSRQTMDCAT
Experiment: Isothermal titration calorimetry of nucleotide binding;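 note: purified human UCP1 in cacodylate buffer with lauryl maltose neopentyl glycol and cardiolipin, titrated with nucleotides, isotherms fitted by one-site model yielding ΔH, Kd and stoichiometry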
Conditions: ITC

Question: What does the source list for `O=c1ccn([C@@H]2O[C@H](COP(=O)(O)OP(=O)(O)OP(=O)(O)O)[C@@H](O)[C@H]2O)c(=O)[nH]1` [UTP, uridine triphosphate]?
Answer: Kd (pH 6.0, 20 °C, mean ± standard deviation of three biological repeats (Fig. 2A-E)): 2860 ± 490 nM; Kd (single biological repeats (source data Fig. 2F)): 3370 nM and 2820 nM and 2400 nM
